Experimental data published in patent US11964946B1, “4,5-bis(4-methoxyphenyl)-1-hexyl-2-(4-nitrophenyl)-1H-imidazole as an antimicrobial compound” (KING FAISAL UNIVERSITY, priority 2023, dated 2024).

Key:
Assay in all cases: Antimicrobial screening, agar dilution method
Type in all cases: cell-based
Conditions in all cases: after 10, 20, 40 and 60 minutes at all dilutions 1:100, 1:200, 1:400, 1:800
[1] = test system: Candida albicans
Description: (§1) The antimicrobial properties of the 4,5-bis(4-methoxyphenyl)-1-hexyl-2-(4-nitrophenyl)-1H-imidazole was studied by the method of agar dilution. Test solutions of each compound was prepared in concentration of 1% using dimethylformamide as a solvent then they were diluted in physiological solution to obtain the final experimental dilutions 1:100, 1:200, 1:400, 1:800. The effect of these substances were compared with furacillin in a controlled study. The testing microbes used were gram positive bacteria Staphylococcus aureus, gram negative bacteria Pseudomonas aeruginosa and Escherichia coli and Candida albicans fungi were taken. The experiments used for this survey were meat-pentonlu agar (EPA) for cultivation of bacteria and Saburo environment for fungi. Each experiment used 1 ml of test solution on each plate 500 min. Add 2 drops of emulsified with microbes feel. All experimental samples were taken from the agar after 10, 20, 40, 60 minutes in the environment on the basis of Patrk planted. Bacteria were cultivated at a temperature of 37° C. for 1 day and the mushroom was kept in a thermostat for […] at a temperature of 28° C. Then results were checked.

[2] = test system: Pseudomonas aeruginosa
Description: as §1

[3] = test system: Escherichia coli
Description: as §1

[4] = test system: Staphylococcus aureus
Description: as §1

Measured: inhibition activity (in words)

CCCCCCn1c(-c2ccc(OC)c(OC)c2)nc(-c2ccc(Br)cc2)c1-c1ccc(Br)cc1 [4,5-bis(4-bromophenyl)-1-hexyl-2-(3,4-dimethoxyphenyl)-1H-imidazole]
highest inhibition activity: all assays above
